The values below come from ChEMBL document CHEMBL1201862, “PubChem BioAssay data set” (2004).

One may read the Ki as a measure of affinity in units of concentration, obtained from inhibition or displacement. Usually EC50 stands for the concentration that produces a half-maximal response. In general, AC50 refers to the concentration at which the activity in the assay is half-maximal.

Assay [1] deals with Serine/threonine-protein kinase pim-1 (Homo sapiens, UniProt P11309). In kind it is functional.
The target in assay [2] is Cell division cycle 7-related protein kinase (Homo sapiens, UniProt O00311). In kind it is functional.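 Further: value obtained from a kinome-wide kinase panel.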
Sequence of Cell division cycle 7-related protein kinase (O00311 whole entry): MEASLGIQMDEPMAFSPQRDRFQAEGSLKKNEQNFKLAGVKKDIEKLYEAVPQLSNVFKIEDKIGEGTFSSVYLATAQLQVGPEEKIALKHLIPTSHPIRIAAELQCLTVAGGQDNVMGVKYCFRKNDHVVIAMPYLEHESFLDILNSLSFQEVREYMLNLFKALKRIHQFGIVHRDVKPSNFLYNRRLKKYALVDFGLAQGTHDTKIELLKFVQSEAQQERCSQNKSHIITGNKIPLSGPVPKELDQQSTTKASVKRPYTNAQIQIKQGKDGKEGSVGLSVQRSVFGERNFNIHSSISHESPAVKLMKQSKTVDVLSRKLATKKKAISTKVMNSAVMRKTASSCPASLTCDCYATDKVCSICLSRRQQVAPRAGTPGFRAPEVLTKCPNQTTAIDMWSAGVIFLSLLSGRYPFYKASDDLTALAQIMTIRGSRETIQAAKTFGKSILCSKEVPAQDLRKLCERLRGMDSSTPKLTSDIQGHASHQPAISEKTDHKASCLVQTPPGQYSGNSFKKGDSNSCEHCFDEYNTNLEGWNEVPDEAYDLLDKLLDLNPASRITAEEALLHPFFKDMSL
Assay [3] addresses Homeodomain-interacting protein kinase 2 (Homo sapiens, UniProt Q9H2X6). The class given is functional.
For assay [4], the target named is Interleukin-1 receptor-associated kinase 4 (Homo sapiens, UniProt Q9NWZ3). In kind it is functional.
Sequence of Interleukin-1 receptor-associated kinase 4 (Q9NWZ3 whole entry): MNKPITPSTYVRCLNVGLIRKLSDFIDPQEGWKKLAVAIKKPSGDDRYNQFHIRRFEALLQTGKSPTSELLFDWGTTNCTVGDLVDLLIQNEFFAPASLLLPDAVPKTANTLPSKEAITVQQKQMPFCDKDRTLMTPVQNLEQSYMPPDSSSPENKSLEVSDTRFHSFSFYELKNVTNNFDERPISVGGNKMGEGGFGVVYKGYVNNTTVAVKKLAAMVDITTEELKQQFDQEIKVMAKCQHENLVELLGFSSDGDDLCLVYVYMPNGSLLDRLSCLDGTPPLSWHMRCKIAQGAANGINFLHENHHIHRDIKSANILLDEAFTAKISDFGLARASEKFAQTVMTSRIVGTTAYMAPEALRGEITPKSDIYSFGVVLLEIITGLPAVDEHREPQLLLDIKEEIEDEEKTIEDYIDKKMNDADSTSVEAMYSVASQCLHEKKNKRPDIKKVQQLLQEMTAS
Assay [5] concerns the target cAMP-dependent protein kinase catalytic subunit alpha (Homo sapiens, UniProt P17612). In kind it is functional.
Assay [6] addresses Mitogen-activated protein kinase kinase kinase kinase 4 (Homo sapiens, UniProt O95819). In kind it is functional.
Assay [7] has as its target T1, Tyrosine-protein phosphatase non-receptor type 7 (Homo sapiens, UniProt P35236).
T1 sequence (P35236 whole entry): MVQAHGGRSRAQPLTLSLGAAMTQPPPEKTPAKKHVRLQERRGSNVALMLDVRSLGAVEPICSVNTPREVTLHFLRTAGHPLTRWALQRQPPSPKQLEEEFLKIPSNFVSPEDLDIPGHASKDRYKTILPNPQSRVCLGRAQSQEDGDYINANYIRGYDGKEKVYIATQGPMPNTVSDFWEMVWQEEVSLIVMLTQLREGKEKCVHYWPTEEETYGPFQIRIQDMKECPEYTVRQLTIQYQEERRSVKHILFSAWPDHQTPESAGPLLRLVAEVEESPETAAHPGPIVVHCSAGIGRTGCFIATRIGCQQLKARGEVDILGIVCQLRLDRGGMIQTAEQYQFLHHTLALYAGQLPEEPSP
In kind it is functional.

For assay [8], the target named is T2, RNA-binding protein pos-1 (Caenorhabditis elegans, UniProt G5EF15).
T2 sequence (G5EF15 whole entry): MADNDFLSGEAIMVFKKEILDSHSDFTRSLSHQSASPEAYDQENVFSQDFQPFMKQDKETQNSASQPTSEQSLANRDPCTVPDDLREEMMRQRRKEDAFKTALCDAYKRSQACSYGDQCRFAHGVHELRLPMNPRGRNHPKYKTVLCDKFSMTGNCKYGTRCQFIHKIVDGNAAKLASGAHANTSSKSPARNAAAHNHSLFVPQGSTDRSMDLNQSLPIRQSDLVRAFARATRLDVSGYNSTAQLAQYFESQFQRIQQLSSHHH
As to the kind of experiment: inhibitors of POS-1/mex-3 RNA binding, dose response, biochemical, fluorescence polarization (AID 1964).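 Further: purified POS-1 fused to maltose binding protein made in E. coli; potency of compounds blocking POS-1 binding to fluorescent RNA.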

The next assay has as its target T3, Bcl-2-like protein 10 (Homo sapiens, UniProt Q9HD36).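 Further: fluorescence polarization from a fluorescein-labelled TR3 peptide binding purified Bcl-B.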
T3 sequence (Q9HD36 whole entry): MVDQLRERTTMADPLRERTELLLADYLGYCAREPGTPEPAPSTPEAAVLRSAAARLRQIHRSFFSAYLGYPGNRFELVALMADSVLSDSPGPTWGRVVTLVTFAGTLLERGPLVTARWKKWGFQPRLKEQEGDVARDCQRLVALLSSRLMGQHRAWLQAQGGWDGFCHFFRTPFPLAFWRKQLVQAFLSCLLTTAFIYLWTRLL
As to the kind of experiment: displacers of TR3 peptide from Bcl-B, primary screen, selectivity assay for Bfl-1 inhibitor project, biochemical, fluorescence polarization, FITC-TR3 peptide (AID 748). (In general: Polarisation of emitted light reports the rotation of a fluorescent probe.)

Assay [9] addresses Glyceraldehyde-3-phosphate dehydrogenase (Homo sapiens, UniProt P04406).
Assay [10] deals with T4, Zinc finger protein mex-5 (Caenorhabditis elegans, UniProt Q9XUB2).
T4 sequence (Q9XUB2 whole entry): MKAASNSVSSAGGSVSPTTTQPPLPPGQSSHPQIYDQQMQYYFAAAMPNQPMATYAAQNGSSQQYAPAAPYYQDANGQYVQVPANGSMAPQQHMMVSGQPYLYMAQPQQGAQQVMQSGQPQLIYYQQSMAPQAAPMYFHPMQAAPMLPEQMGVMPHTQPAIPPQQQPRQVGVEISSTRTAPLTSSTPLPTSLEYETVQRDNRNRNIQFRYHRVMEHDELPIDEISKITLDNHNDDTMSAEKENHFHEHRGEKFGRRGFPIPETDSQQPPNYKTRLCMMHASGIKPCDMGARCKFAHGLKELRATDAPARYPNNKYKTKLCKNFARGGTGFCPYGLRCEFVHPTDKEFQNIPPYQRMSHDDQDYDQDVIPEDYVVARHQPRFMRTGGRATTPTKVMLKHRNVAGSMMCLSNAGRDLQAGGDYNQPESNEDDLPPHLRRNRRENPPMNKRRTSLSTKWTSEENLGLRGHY
Put plainly: MEX-5/TCR-2 RNA interaction inhibitors, dose response, biochemical, C. elegans, fluorescence polarization (AID 1960).

The target in assay [11] is Heat shock cognate 71 kDa protein (Homo sapiens, UniProt P11142). Put plainly: In Vitro Hsc70 Dose Response Fluorescence Polarization Assay. [Related pubchem assays: 1072 ].
Sequence of Heat shock cognate 71 kDa protein (P11142 whole entry): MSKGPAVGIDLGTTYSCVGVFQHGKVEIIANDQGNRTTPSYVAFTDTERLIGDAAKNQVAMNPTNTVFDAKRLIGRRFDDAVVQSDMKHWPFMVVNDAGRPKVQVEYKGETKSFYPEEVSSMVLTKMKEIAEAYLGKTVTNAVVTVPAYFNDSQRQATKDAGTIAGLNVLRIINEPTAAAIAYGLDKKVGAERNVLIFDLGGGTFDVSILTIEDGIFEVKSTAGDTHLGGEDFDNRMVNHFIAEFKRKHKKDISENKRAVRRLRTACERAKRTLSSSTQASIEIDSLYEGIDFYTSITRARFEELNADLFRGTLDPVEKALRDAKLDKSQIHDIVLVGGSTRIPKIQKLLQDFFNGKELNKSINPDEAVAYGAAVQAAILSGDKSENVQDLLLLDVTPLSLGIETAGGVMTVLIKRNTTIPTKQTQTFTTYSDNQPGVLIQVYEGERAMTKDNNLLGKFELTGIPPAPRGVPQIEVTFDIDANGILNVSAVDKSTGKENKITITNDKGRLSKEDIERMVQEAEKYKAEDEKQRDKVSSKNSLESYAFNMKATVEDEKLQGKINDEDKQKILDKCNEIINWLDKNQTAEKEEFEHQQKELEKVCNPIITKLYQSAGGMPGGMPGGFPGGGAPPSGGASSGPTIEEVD
Another assay deals with Large T antigen (Simian virus 40, UniProt P03070). The class given is functional, Betapolyomavirus macacae.
The target of assay [12] is Heat shock 70 kDa protein 1A (Homo sapiens, UniProt P0DMV8). As to the kind of experiment: Hsp70 inhibitors, SAR follow-up, biochemical, fluorescence polarization (AID 1072).
Assay [13] concerns the target T5, Dual specificity protein phosphatase 6 (Rattus norvegicus, UniProt Q64346).
T5 sequence (Q64346 whole entry): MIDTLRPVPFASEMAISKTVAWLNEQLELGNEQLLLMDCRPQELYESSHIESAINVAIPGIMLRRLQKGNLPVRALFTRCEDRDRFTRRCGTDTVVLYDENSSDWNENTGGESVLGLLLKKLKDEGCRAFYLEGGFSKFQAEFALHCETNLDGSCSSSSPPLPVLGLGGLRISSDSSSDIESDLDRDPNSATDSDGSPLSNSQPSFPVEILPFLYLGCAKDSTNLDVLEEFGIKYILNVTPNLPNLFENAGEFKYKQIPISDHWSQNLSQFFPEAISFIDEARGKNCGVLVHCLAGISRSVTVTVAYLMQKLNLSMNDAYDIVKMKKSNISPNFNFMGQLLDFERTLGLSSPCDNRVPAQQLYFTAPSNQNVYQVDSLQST

The target in assay [14] is T5, Dual specificity protein phosphatase 6. As to the kind of experiment: MKP-3 phosphatase inhibitors, primary screen, biochemical, rat enzyme, in vitro (AID 425).
The target of assay [15] is Induced myeloid leukemia cell differentiation protein Mcl-1 (Homo sapiens, UniProt Q07820). In kind it is functional.
Sequence of Induced myeloid leukemia cell differentiation protein Mcl-1 (Q07820 whole entry): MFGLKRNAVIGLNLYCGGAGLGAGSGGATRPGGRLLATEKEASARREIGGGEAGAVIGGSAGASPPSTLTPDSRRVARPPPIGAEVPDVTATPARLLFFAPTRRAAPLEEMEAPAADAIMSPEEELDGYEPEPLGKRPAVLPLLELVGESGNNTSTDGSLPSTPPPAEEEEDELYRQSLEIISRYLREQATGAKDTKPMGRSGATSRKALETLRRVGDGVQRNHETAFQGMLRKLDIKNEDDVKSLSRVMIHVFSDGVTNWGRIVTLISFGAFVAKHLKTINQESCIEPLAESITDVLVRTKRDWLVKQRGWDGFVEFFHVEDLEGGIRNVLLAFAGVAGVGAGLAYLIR
For assay [16], the target named is Eukaryotic translation initiation factor 4E (Mus musculus, UniProt P63073). As to the kind of experiment: eIF4E–eIF4G protein interaction inhibitors, dose response, biochemical, TR-FRET (AID 855).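 Further: potency for disrupting eIF4E binding to eIF4GI seen as loss of FRET.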 In kind it is functional. In general terms: In TR-FRET formats the signal depends on donor and acceptor labels being close together.
Sequence of Eukaryotic translation initiation factor 4E (P63073 whole entry): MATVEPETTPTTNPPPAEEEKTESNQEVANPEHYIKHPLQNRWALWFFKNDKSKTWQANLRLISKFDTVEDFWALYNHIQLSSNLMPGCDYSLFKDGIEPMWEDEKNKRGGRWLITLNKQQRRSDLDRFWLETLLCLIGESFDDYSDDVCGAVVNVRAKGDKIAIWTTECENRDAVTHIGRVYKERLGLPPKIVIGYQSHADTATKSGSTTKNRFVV
Assay [17] has as its target T5, Dual specificity protein phosphatase 6. The class given is functional.
The target of assay [18] is T6, DNA dC->dU-editing enzyme APOBEC-3A (Homo sapiens, UniProt P31941). As to the kind of experiment: SAR analysis of small molecule inhibitors of APOBEC3A DNA Deaminase via a fluorescence-based single-stranded DNA deaminase assay - Set 2. In kind it is functional. To be noted: read-out: IC50_Mean.
T6 sequence (P31941 whole entry): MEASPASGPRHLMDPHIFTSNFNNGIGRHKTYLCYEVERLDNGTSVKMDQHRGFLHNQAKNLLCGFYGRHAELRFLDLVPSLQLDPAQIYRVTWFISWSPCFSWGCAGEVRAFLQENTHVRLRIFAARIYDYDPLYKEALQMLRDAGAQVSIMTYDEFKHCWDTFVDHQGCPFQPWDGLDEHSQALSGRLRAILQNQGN
The target of assay [19] is T7, DNA dC->dU-editing enzyme APOBEC-3G (Homo sapiens, UniProt Q9HC16). As to the kind of experiment: SAR analysis of small molecule inhibitors of APOBEC3G DNA Deaminase via a fluorescence-based single-stranded DNA deaminase assay - Set 2. The class given is functional. The note with it: read-out: IC50_Mean.
T7 sequence (Q9HC16 whole entry): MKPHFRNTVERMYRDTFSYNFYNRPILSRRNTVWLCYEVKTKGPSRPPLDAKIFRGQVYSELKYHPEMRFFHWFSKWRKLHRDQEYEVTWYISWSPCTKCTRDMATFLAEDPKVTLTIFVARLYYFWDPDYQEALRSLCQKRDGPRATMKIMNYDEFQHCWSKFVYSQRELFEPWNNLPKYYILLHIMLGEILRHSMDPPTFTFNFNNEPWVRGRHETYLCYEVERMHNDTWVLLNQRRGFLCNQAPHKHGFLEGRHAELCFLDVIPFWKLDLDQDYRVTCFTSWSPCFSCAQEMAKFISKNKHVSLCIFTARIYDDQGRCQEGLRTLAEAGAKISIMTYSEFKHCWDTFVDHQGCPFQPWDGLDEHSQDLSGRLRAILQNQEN
The target of assay [20] is T7, DNA dC->dU-editing enzyme APOBEC-3G. As to the kind of experiment: APOBEC3G deaminase inhibitors, SAR follow-up, biochemical, fluorescence, single-stranded DNA substrate (AID 602136). The class given is functional. To be noted: read-out: IC50_Mean.
Assay [21] addresses T6, DNA dC->dU-editing enzyme APOBEC-3A. Put plainly: SAR analysis of small molecule inhibitors of APOBEC3A DNA Deaminase via a fluorescence-based single-stranded DNA deaminase assay. In kind it is functional. To be noted: read-out: IC50_Mean.
The subject of another assay is CHO-K1. Put plainly: Counterscreen for antagonists of the orexin 1 receptor (OX1R; HCRTR1): Homogeneous time resolved fluorescence (HTRF)-based cell-based dose response assay to identify antagonists of the parental CHO-K1 cell line. [Related pubchem assays (depositor defined):AID434989, AID435008, AID463079, AID485270, AID492963, AID492964, AID492965, AID493232, AID504699, AID504701]. In kind it is functional. The note with it: Cricetulus griseus. (Counterscreens check selectivity or assay interference.)

Assay [22] in a line: Counterscreen for antagonists of the orexin 1 receptor (OX1R; HCRTR1): Fluorescence-based cell-based high throughput dose response assay to identify antagonists of the parental CHO cell line. [Related pubchem assays (depositor defined):AID434989, AID435008, AID463079, AID485270, AID492963, AID492964, AID492965, AID493232, AID504699, AID504701]. In kind it is functional.
The target of assay [23] is T8, Orexin/Hypocretin receptor type 1 (Homo sapiens, UniProt O43613).
T8 sequence (O43613 whole entry): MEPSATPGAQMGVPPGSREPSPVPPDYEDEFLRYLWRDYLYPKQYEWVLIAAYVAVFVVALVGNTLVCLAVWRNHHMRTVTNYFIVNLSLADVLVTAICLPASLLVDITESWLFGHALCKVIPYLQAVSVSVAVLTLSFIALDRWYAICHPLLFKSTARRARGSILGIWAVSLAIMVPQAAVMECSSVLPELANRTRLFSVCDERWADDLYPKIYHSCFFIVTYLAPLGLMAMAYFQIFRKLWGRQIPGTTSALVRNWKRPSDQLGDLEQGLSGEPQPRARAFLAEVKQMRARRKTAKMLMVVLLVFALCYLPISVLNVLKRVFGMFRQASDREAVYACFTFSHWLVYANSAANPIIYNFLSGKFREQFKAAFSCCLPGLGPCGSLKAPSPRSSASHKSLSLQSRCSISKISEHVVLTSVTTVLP
Put plainly: Homogeneous Time Resolved Fluorescence (HTRF)-based cell-based high throughput dose response assay for antagonists of the orexin 1 receptor (OX1R; HCRTR1). [Related pubchem assays (depositor defined):AID434989, AID435008, AID463079, AID485270, AID492963, AID492964, AID492965, AID493232, AID504717, AID504718]. The class given is functional.

Assay [24] addresses T8, Orexin/Hypocretin receptor type 1. Put plainly: Fluorescence-based cell-based high throughput dose response assay for antagonists of the orexin 1 receptor (OX1R; HCRTR1). [Related pubchem assays (depositor defined):AID434989, AID435008, AID463079, AID485270, AID492963, AID492964, AID492965, AID493232, AID504717, AID504718]. The class given is functional.
Assay [25] has as its target T9, Orexin receptor type 2 (Homo sapiens, UniProt O43614). As to the kind of experiment: Counterscreen assay for antagonists of the orexin 1 receptor (OX1R; HCRTR1): Fluorescence-based cell-based dose response assay for antagonists of the orexin 2 receptor (OX2R; HCRTR2), run by assay provider. In kind it is functional.
For assay [26], the target named is T9, Orexin receptor type 2. Put plainly: Counterscreen assay for antagonists of the orexin 1 receptor (OX1R; HCRTR1): Homogeneous Time Resolved Fluorescence (HTRF)-based cell-based dose response assay for antagonists of the orexin 2 receptor (OX2R; HCRTR2), run by assay provider. The class given is functional.
Assay [27] has as its target Protein disulfide-isomerase (Homo sapiens, UniProt P07237). As to the kind of experiment: PDI inhibitors, insulin aggregation turbidity, dose response, biochemical, absorbance, cherry-picked samples (AID 602350). The class given is functional.

Active and inactive are the calls of the source.

T9 sequence (O43614 whole entry): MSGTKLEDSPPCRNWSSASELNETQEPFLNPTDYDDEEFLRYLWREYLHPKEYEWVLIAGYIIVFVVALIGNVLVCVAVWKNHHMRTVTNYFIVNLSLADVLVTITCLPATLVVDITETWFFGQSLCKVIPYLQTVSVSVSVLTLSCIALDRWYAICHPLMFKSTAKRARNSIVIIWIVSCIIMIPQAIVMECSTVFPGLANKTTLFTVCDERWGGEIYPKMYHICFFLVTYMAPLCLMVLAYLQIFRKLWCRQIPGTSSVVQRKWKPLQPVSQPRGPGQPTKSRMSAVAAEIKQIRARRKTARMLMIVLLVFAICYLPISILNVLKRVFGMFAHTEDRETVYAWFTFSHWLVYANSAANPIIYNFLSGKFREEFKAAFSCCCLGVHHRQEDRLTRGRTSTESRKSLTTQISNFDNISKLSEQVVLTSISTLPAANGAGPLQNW
Sequence of Mitogen-activated protein kinase kinase kinase kinase 4 (O95819 whole entry): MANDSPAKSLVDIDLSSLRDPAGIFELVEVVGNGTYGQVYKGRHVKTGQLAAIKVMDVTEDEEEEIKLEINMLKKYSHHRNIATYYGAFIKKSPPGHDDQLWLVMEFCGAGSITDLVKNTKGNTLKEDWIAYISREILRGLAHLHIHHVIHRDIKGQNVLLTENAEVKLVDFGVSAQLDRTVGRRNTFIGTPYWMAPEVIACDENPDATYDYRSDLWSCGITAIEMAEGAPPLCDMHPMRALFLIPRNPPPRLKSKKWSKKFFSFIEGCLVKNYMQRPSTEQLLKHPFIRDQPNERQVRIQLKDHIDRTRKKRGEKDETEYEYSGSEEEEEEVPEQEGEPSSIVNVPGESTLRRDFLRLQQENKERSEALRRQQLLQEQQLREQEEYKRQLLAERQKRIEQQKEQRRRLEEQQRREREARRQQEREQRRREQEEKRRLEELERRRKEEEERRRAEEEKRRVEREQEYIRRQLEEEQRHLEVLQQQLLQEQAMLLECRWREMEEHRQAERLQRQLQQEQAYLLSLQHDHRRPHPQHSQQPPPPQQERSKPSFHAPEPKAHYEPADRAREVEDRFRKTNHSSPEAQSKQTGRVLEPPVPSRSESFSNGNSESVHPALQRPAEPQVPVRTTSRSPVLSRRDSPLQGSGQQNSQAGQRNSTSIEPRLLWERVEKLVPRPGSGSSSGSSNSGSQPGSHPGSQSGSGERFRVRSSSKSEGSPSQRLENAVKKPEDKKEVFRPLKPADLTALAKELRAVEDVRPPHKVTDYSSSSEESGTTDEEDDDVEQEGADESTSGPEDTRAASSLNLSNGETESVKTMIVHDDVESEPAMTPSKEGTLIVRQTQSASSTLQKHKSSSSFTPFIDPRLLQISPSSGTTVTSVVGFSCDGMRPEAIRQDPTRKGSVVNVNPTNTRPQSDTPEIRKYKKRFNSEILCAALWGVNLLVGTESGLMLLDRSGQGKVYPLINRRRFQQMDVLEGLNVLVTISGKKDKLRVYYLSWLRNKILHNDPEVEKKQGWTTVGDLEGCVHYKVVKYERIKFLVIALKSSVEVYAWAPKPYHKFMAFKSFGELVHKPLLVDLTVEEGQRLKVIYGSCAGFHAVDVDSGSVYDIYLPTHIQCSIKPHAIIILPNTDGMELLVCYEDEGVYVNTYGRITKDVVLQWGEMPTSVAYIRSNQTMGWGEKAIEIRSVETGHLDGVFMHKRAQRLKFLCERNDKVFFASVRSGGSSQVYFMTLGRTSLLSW
Sequence of Glyceraldehyde-3-phosphate dehydrogenase (P04406 whole entry): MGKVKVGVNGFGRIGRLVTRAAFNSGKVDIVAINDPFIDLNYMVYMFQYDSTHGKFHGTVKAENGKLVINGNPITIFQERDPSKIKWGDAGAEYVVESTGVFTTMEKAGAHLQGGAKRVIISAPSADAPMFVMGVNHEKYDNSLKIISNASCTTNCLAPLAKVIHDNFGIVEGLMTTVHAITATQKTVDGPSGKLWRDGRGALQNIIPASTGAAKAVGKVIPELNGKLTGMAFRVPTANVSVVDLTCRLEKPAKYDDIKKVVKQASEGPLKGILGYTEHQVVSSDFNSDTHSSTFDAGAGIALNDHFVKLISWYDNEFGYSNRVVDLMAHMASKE

With `c1ccc(Cn2cc(-c3ccc4[nH]nc(-c5cn(Cc6ccccc6)nn5)c4c3)nn2)cc1`, the Ki in assay [1] is 0.398 µM (active); in assay [2], 0.0501 µM (active); in assay [3] it was 0.0158 µM (active); in [4] it was 3.98 µM (active); in assay [5] it was > 7.94 µM (inactive); in assay [6] it was 0.1 µM (active).
On to `Cc1ccc2c(c1C)NC(C(=O)O)C1CC=CC21` (stereo not given), for which the IC50 in [7] was 5.43 µM (active); on Bcl-2-like protein 10, 1.89 µM (active); in [9], 80.8 µM (active); in assay [11], 21.9 µM (active); at Large T antigen it was 91.4 µM (active); in assay [12] it was 7.18 µM (active). The IC50 in assay [13] was 6.2 µM (active); in [14], > 10 µM (not active); in [15], 3.17 µM (active); in [16] it was 8.68 µM (active); in assay [17] it was 5.96 µM (active); in assay [18] it was 1.7 µM (active). Also, the IC50 is 0.858 µM (active) in assay [19], 30.3 µM (inactive) in [20] and 6.55 µM (active) in assay [21]. The EC50 in [8] is 37.4 µM (active); in assay [10], 21.7 µM (active).
In the case of `O=C(O)CCn1c(SCCOc2ccccc2)nc2ccccc21`, the IC50 was > 66.2 µM (inactive) with CHO-K1; > 49.7 µM (inactive) in assay [22]; 0.687 µM (active) in assay [23]; 23 µM (inactive) in assay [24]; > 88.8 µM (inactive) at Orexin receptor type 2 [25]; > 50 µM (inactive) on Orexin receptor type 2 [26].
Consider `O=C1NC[C@H](Cc2ccccc2)N(C[C@H]2CCCN2C[C@H](Cc2ccccc2)N2C[C@H](Cc3ccc(O)cc3)N(CCc3ccccc3)C(=O)C2=O)C1=O`, for which the concentration at half-maximal activity (AC50) in assay [27] was 6.5 µM (active).
